Key:
Type in all cases: cell-based
human P2X7 receptor [1] = molecular target: T1, human P2X7 receptor (Homo sapiens, UniProt Q99572); experiment: Fluo-4 calcium influx and ethidium dye uptake; complete block at […]; design: gene P2RX7; human P2X7 stably expressed in HEK-293 cells
T1 sequence (Q99572 1-595): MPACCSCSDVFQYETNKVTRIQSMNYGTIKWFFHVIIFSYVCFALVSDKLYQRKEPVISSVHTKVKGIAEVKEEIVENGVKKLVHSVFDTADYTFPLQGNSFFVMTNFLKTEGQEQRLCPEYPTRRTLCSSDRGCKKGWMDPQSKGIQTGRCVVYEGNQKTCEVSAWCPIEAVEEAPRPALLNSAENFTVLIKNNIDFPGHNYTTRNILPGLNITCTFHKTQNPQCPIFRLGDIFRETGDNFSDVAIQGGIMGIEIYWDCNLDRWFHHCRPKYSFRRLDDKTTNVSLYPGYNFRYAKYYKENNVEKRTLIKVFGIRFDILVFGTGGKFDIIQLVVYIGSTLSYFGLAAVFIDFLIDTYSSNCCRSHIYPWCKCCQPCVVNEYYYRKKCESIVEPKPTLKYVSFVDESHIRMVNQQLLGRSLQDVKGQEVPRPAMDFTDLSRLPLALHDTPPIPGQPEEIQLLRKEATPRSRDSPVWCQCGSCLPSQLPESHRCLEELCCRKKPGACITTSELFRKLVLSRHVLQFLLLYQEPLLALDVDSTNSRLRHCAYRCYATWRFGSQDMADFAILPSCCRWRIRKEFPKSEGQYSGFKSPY

human P2X7 receptor [2] = molecular target: T1, human P2X7 receptor; experiment: ATP-induced ethidium dye uptake; complete block at […]; design: gene P2RX7; human P2X7 stably expressed in HEK-293 cells
rat P2X7 = molecular target: T2, rat P2X7 (Rattus norvegicus, UniProt Q64663); experiment: ATP-induced ethidium dye uptake, […] inhibition at […]; conditions: read-out: % inhibition at 2.5 mM
T2 construct: gene P2rx7; rat P2X7 stably expressed in HEK-293 cells
T2 sequence (Q64663 1-595): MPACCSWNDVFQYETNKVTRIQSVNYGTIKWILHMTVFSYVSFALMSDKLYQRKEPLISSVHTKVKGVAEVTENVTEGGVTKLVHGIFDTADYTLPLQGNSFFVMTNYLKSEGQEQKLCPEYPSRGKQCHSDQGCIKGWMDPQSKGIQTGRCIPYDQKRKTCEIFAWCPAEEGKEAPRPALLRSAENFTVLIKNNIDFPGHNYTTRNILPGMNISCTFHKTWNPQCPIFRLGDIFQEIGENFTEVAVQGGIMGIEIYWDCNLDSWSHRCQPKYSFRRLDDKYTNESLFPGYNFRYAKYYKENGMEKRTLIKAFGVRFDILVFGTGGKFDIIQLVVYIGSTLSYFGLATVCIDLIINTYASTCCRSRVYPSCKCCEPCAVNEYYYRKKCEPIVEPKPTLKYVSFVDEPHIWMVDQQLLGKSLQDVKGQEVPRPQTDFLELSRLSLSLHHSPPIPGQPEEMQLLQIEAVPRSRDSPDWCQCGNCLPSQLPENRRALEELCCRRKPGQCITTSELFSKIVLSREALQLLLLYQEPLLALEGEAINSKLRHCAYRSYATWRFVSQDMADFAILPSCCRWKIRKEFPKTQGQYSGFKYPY

human P2X7 receptor [3] = molecular target: T1, human P2X7 receptor; experiment: whole-cell patch clamp, Fluo-4 calcium influx and ethidium dye uptake (IC50 from dye uptake, […] ATP); design: gene P2RX7; wild-type human P2X7 stably expressed in HEK-293 cells

## Clc1cccc(-c2nnnn2Cc2cccnc2)c1Cl [A-438079]
Human P2X7 receptor [1]
  Fluo-4 calcium influx and ethidium dye uptake; complete block at 10 μM: 10 µM

## O=C1CSC(=O)N1C(CCc1ccncc1)COc1ccc(-c2cccc([N+](=O)[O-])c2)cc1 (stereo not shown) [AZ11645373]
Human P2X7 receptor [2]
  ATP-induced ethidium dye uptake; complete block at 10 μM: 10 µM

## CCCN(CCC)S(=O)(=O)c1ccc(C(=O)O)cc1 [PRO, Probenecid]
Rat P2X7
  inhibition at 2500 µM: 34%
Human P2X7 receptor [3]
  IC50: 203 µM

From article PMC3966854, “Probenecid Blocks Human P2X7 Receptor-Induced Dye Uptake via a Pannexin-1 Independent Mechanism” (PLoS ONE, 2014)
